Experimental data from US8242086B2, “Methods and compositions for treating disorders caused by a deficiency in a gene product of a CLN gene” (Duke University, priority 2008, dated 2012).
Blank lines part the entries; values can stand above or below the compound they belong to.

Columns and labels:
lymphoblasts = assay: Propidium iodide staining of lymphoblasts treated with GCT siRNA, with or without etoposide; format: cell-based, human
Description: Propidium iodide (PI) staining. Lymphoblasts (treated with GCT siRNA vs. control siRNA) were treated vs. not treated with etoposide and stained with propidium iodide (PI). The percentage of PI positive cells was counted in each.

CLN3 knockdown NT2 cells [1] = assay: Cell apoptosis rate in CLN3 knockdown NT2 cells, propidium iodide; format: cell-based, human; details: NT2 cells, 3 days post-transfection, vs wild type
Description: (§1) Cell Culture and Cell Treatment. NT2 neuronal precursor cells (ATCC cat no. CRL 1973) were grown in DMEM supplemented with 1% sodium pyruvate, L-glutamine and antibiotics and incubated in 37 C and 5% CO2 for 3 days.
siRNA knockdown of CLN3 in NT2 cells. HS1 siRNA ([…]) for CLN3 knockdown was designed using BLOCK-iT RNA™ Designer (Invitrogen). […] siRNA and scrambled universal negative control siRNA oligonucleotides were transfected into wild type NT2 cells using Lipofectamine RNAiMax™ according to manufacturer's protocol. In brief, […] HS1 RNAi duplex or scrambled siRNA universal negative control were diluted in 50 μl DMEM medium without serum. Lipofectamine™ RNAiMAX was mixed gently before use, then 1 μl was diluted in 50 μl DMEM medium. The diluted RNAi duplexes were combined with the diluted Lipofectamine RNAiMAX and incubated for 10 minutes at room temperature. […]
Determination of cell apoptosis rate in CLN3 knockdown NT2 cells. 10^6 cells transfected with CLN3 siRNA or scrambled siRNA, either treated with 50 ng/ml of GalCer (Avanti Polar Lipids, inc.) or solvent, are suspended in 100 μl PBS, incubated with 100 μl/0.5 mg/ml PI, washed, placed on slides and viewed using a fluorescence microscope. […] Cells in three fields of vision were counted. Percentage of red staining-apoptotic cells/total cells was determined.

CLN3 transcript = assay: Real-Time PCR validation of CLN3 knockdown in NT2 cells; format: cell-based, human; details: 3 days post-transfection, vs scrambled siRNA
Description: (§2) siRNA knockdown of CLN3 in NT2 cells. HS1 siRNA ([…]) for CLN3 knockdown was designed using BLOCK-iT RNA™ Designer (Invitrogen). […] siRNA and scrambled universal negative control siRNA oligonucleotides were transfected into wild type NT2 cells using Lipofectamine RNAiMax™ according to manufacturer's protocol. In brief, […] HS1 RNAi duplex or scrambled siRNA universal negative control were diluted in 50 μl DMEM medium without serum. Lipofectamine™ RNAiMAX was mixed gently before use, then 1 μl was diluted in 50 μl DMEM medium. The diluted RNAi duplexes were combined with the diluted Lipofectamine RNAiMAX and incubated for 10 minutes at room temperature. The RNAi duplex-Lipofectamine™ RNAiMAX complexes were added to cells for a final RNA concentration of 10 nM. Cells were harvested 96 hours post-transfection.
Real-Time PCR validation of CLN3 knockdown. To calculate the effect of CLN3 knockdown following siRNA transfection, RNA from NT2 cells, transfected either with CLN3 siRNA or with scrambled siRNA, was isolated using Trizol reagent (Invitrogen). Reverse transcription was carried out with SuperScript III First-Strand-Synthesis System (Invitrogen). Real Time-PCR was conducted on 500 ng cDNA using /SYBRGreen 10 Mix (Biorad, U.S.A) in a Biorad I-Cycler. […] To confirm CLN3 knockdown, change in fold expression compared to scrambled siRNA transfected control cells was calculated. […]

CLN3 knockdown NT2 cells [2] = assay: Cell proliferation rate in CLN3 knockdown NT2 cells, Trypan blue dye exclusion; format: cell-based, human; details: NT2 cells, 3 days post-transfection, vs WT-NT2
Description: as §1
as §2, with “Cells were harvested 96 hours post-transfection.” left out
Determination of cell proliferation rate in CLN3 knockdown NT2 cells. 4×10^5 cells transfected with CLN3 siRNA or scrambled siRNA, and treated or not treated with 50 ng/ml GalCer, were seeded and counted with Trypan blue dye exclusion. […]
NT2 cell proliferation and apoptosis rates. An equal number of NT2 cells was initially seeded and cell number determined at different time points with Trypan blue dye exclusion. […]

CLN2 protein = biological target: T1, CLN2 protein (Homo sapiens, UniProt O14773); assay: Protein-lipid overlay assay, CLN2 protein; format: binding; details: lysates from normal cells, custom made sphingostrips
T1 construct: endogenous in cells
T1 sequence (O14773 196-563): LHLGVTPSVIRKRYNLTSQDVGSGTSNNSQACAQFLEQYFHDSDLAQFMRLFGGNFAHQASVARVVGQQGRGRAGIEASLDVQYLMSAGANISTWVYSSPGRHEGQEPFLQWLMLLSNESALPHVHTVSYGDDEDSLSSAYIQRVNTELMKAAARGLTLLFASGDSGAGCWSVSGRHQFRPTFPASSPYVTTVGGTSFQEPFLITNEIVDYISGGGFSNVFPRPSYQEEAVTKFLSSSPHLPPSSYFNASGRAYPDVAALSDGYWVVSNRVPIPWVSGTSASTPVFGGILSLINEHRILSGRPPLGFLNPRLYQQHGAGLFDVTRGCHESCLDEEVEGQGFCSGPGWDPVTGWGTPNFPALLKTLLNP
Description: (§3) Protein-lipid overlay assay. Membrane arrays (SPHINGOSTRIPS (Echelon Research Laboratories, Salt Lake City, Utah), or lipids were spotted on nitrocellulose membranes and dried for at least one hour. Membranes were blocked with 3% (wt/vol) Fatty Acid Free or FFA-BSA (Sigma-Aldrich, St. Louis, Mo.) in Tris-Buffered Saline Tween-20 (TBST) [150 mM NaCl/10 mM Tris.HCl (pH 8.0), and 0.1% (vol/vol) Tween-20] for 1 h at RT. Blocked membranes were incubated for 8 h at 4° C. with 2 mg/ml of total cell lysate.
(§4) Fibroblasts overexpressing CLN3p (AC1 cells) and JNCL fibroblasts were used for the GalCer-CLN3 binding assay. The membranes were then washed five times for 5 min each with TBST. After washing, membranes were incubated with anti-CLN3, CLN1, CLN2, CLN6 or CLN8-antibodies overnight at 1:1000 dilution, followed by additional washing and incubation with horseradish peroxidase-conjugated anti-rabbit IgG goat antibody for 1 h at RT. After a final washing, enhanced chemiluminescence was used to detect binding of NCL proteins to sphingolipids. Intensity values were computed with an ImageJ software program.
(§5) CLN1, CLN2, CLN6, CLN8 and CLN9 proteins also bind to lipids. […]

CLN6 protein = biological target: T2, CLN6 protein (Homo sapiens, UniProt Q9NWW5); assay: Protein-lipid overlay assay, CLN6 protein; format: binding; details: lysates from normal cells, custom made sphingostrips
T2 construct: endogenous in cells
T2 sequence (Q9NWW5 1-311): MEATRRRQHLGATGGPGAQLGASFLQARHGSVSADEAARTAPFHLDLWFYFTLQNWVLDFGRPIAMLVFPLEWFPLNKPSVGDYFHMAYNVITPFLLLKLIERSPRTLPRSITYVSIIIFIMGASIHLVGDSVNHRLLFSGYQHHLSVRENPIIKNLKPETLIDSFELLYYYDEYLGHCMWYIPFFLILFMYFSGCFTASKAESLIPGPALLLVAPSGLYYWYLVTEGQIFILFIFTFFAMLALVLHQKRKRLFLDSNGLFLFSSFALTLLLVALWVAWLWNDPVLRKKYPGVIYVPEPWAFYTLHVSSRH
Description: as §3, §4
CLN1, CLN2, CLN6, CLN8 and CLN9 proteins also bind to lipids. The protein-lipid overlay assay, using custom made sphingostrips, lysates from normal cells and anti-CLN1, anti-CLN2-, anti-CLN6, and anti-CLN8-antibodies, established that CLN6 and CLN8 proteins bind to GalCer, CLN1, CLN2 and CLN6p bind lysophosphatidic acid (LPA) and sulfatide, and CLN8p binds ceramide (FIG. 5).

CLN1 protein = biological target: T3, CLN1 protein (Homo sapiens, UniProt P50897); assay: Protein-lipid overlay assay, CLN1 protein; format: binding; details: lysates from normal cells, custom made sphingostrips
T3 construct: endogenous in cells
T3 sequence (P50897 28-306): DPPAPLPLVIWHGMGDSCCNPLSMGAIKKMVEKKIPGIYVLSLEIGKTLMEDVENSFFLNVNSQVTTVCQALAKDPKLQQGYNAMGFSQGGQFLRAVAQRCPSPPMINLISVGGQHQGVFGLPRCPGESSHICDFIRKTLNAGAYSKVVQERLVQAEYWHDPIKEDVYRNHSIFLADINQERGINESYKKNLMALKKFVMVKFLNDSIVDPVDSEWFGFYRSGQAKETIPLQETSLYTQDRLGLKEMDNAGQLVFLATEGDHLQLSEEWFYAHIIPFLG
Description: as §3, §4, §5

mutant CLN3p = assay: Protein-lipid overlay assay, mutant CLN3p (JNCL cell lysate); format: binding, human; details: lysate of JNCL cells, anti-CLN3 antibody
Description: as §3, §4
Binding of CLN3 to GalCer and sulfatide. Membranes impregnated with sphingolipids were overlaid with protein cell lysates from CLN3-overexpressing and JNCL cells. Anti-CLN3 antibody was used to evaluate binding. […]

wild-type CLN3p = biological target: T4, wild-type CLN3p (Homo sapiens, UniProt Q13286); assay: Protein-lipid overlay assay, wild-type CLN3p; format: binding; details: lysate of CLN3-overexpressing cells, anti-CLN3 antibody
T4 construct: expressed in transfected cells; host or cells: fibroblasts overexpressing CLN3p (AC1 cells)
T4 sequence (Q13286 1-438): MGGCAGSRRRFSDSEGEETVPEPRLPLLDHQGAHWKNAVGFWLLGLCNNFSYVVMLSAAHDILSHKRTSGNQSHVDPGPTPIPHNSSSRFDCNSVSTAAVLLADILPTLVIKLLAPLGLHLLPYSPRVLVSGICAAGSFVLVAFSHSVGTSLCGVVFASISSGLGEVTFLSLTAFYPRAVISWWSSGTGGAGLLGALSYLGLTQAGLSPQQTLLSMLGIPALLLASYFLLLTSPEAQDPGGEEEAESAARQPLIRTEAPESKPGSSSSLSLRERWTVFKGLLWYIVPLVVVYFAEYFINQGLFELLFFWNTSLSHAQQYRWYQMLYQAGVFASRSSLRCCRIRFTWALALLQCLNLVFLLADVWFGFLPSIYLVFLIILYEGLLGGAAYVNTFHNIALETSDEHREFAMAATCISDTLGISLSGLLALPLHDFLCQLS
Description: as §3, §4
Binding of CLN3 to GalCer and sulfatide. Membranes impregnated with sphingolipids were overlaid with protein cell lysates from CLN3-overexpressing and JNCL cells. Anti-CLN3 antibody was used to evaluate binding. […] The signal for GalCer-wild-type CLN3p binding was weaker because the more polar sulfatide competes with the less polar GalCer for binding to wild-type CLN3p.

CLN8 protein = assay: Protein-lipid overlay assay, CLN8 protein; format: binding; details: lysates from normal cells, custom made sphingostrips
Description: as §3, §4, §5

Compound: COc1cc([C@@H]2c3cc4c(cc3[C@@H](O[C@@H]3O[C@@H]5CO[C@@H](C)O[C@H]5[C@H](O)[C@H]3O)[C@H]3COC(=O)[C@H]23)OCO4)cc(OC)c1O [Etoposide, etoposide]
effect of etoposide on apoptosis of GCT knockdown cells (lymphoblasts): augmented the effect of reduced GalCer on apoptosis

Compound: HS1: HS1 siRNA (TCACGATTTGACTGCAACTCTG) for CLN3 knockdown (listed as DNA, chemistry not given here) [reference compound]
increase in apoptosis (CLN3 knockdown NT2 cells [1]): 2.4 fold
decrease in CLN3 expression (CLN3 transcript): 22 fold
decrease in growth (CLN3 knockdown NT2 cells [2]): 58%

binding of CLN2 protein to lipid (CLN2 protein): bind
binding of CLN6 protein to lipid (CLN6 protein): bind
binding of CLN1 protein to lipid (CLN1 protein): bind
Compound: lysophosphatidic acid

Compound: sulfatide
binding of CLN2 protein to lipid (CLN2 protein): bind
binding of mutant CLN3 to membrane spots impregnated with the lipid (mutant CLN3p): failed to do so
binding of wild-type CLN3p to membrane spots impregnated with the lipid (wild-type CLN3p): bind strongly
binding of CLN6 protein to lipid (CLN6 protein): bind
binding of CLN1 protein to lipid (CLN1 protein): bind

binding of CLN8 protein to lipid (CLN8 protein): binds
Compound: ceramide
